Experimental data from patent US10981932B2, “Macrocyclic indole derivatives” (Bayer Aktiengesellschaft, priority 2016, dated 2021).
Structures can show the parent of a compound that is named as a salt. Where two headings read alike, the source gives them in different places.

Assays:
MCL-1 = MCL-1 (Homo sapiens, UniProt Q07820); experiment: Protein-protein interaction assay MCL-1/Noxa BH3 peptide (MCL-1 assay), TR-FRET; type: binding; conditions: MBP-MCL-1 / Noxa BH3-derived peptide, median
In short: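 Displacement of the biotinylated Noxa BH3 peptide from MBP-tagged human MCL-1 (1 nM) is detected by time-resolved FRET. Compounds are tested in duplicate across eleven concentrations up to 20 μM, incubated 1 h at 22 °C and overnight at 4 °C, and IC50 is fitted with a four-parameter equation.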

SUDHL5 [1] = experiment: Induction of cytotoxicity (CellTiter-Glo, 5 h), SUDHL5
A2780 = experiment: Anti-proliferative effect (CellTiter-Glo, 72 h), A2780; type: cell-based; conditions: A2780 cells, median, read-out: IC50 antiproliferation assay A2780 [M] (median)
In short: (§1)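 Viable cells quantified with CellTiter-Glo after 72 h at 37 °C; rim wells excluded; day 0 plate as baseline.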

MV-4-11 = experiment: Anti-proliferative effect (CellTiter-Glo, 72 h), MV-4-11; type: cell-based; conditions: MV-4-11 cells, median, read-out: IC50 antiproliferation assay MV-4-11 [M] (median)
In short: as §1

SUDHL10 [2] = experiment: Induction of caspase-3/7 activity (Caspase-Glo 3/7), SUDHL10; type: cell-based; conditions: caspase-3/7 induction, SUDHL10 cells, 3 h treatment, median
In short: (§2)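 Caspase-Glo 3/7 luminescence, 3 h compound exposure, 37 °C, humidified. Minus medium-only blank. EC50 fit: C0=1, plateau = reference max induction.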

SUDHL10 [3] = experiment: Induction of cytotoxicity (CellTiter-Glo, 5 h), SUDHL10
SUDHL5 [4] = experiment: Anti-proliferative effect (CellTiter-Glo, 72 h), SUDHL5; type: cell-based; conditions: SUDHL5 cells, antiproliferation, median, read-out: Antiproli SUDHL5 [M] (median)
In short: as §1

SUDHL5 [5] = experiment: Induction of caspase-3/7 activity (Caspase-Glo 3/7), SUDHL5; type: cell-based; conditions: caspase-3/7 induction, SUDHL5 cells, 3 h treatment, median
In short: as §2

[6] = read-out: Cytotox SUDHL5 [M] (median), SUDHL5 cells, cytotoxicity induction, CellTiter-Glo, 5 h incubation, median
[7] = read-out: Cytotox SUDHL10 [M] (median), SUDHL10 cells, cytotoxicity induction, CellTiter-Glo, 5 h incubation, median
[8] = read-out: Cytotox SUDHL5 [M] (median), SUDHL5 cells, cytotoxicity induction, CellTiter-Glo, 5 h, median
[9] = read-out: Cytotox SUDHL10 [M] (median), SUDHL10 cells, cytotoxicity induction, CellTiter-Glo, 5 h, median
[10] = Homo sapiens, SU-DHL-5, 5 h, read-out: Cytotox SUDHL5 [M] (median), SUDHL5 cells, cytotoxicity induction, CellTiter-Glo, 5 h, median
[11] = Homo sapiens, SU-DHL10, 5 h, read-out: Cytotox SUDHL10 [M] (median), SUDHL10 cells, cytotoxicity induction, CellTiter-Glo, 5 h, median
[12] = Homo sapiens, SU-DHL-5, 72 h, 72 h
[13] = Homo sapiens, SU-DHL-5, 5 h, read-out: Cytotox SUDHL5 [M] (median), SUDHL5 cells, cytotoxicity induction, CellTiter-Glo, 5 h incubation, median
[14] = Homo sapiens, SU-DHL10, 5 h, read-out: Cytotox SUDHL10 [M] (median), SUDHL10 cells, cytotoxicity induction, CellTiter-Glo, 5 h incubation, median
[15] = Homo sapiens, SU-DHL-5, 72 h, 72 h incubation

Chain of MCL-1 (Q07820 whole entry): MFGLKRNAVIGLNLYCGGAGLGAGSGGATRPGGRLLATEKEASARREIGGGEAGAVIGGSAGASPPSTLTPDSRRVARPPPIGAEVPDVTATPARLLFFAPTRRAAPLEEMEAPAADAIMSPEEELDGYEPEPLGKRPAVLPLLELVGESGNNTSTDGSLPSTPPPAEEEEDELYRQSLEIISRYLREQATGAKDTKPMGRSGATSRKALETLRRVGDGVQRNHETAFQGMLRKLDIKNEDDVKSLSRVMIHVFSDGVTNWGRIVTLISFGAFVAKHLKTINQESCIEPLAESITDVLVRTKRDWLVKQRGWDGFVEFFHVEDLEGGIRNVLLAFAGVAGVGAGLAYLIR

SMILES	IC50 (MCL-1) [µM]	IC50 (SUDHL5 [1]; [6]) [M]	IC50 (A2780) [M]	IC50 (MV-4-11) [M]	EC50 (SUDHL10 [2]) [µM]	IC50 (SUDHL10 [3]; [7]) [M]	IC50 (SUDHL5 [4]; 72 h incubation) [M]	EC50 (SUDHL5 [5]) [µM]	IC50 (A2780; Homo sapiens, A2780, 72 h) [M]	IC50 (MV-4-11; Homo sapiens, MV4-11, 72 h) [M]	EC50 (SUDHL10 [2]; Homo sapiens, SU-DHL10, 3 h) [µM]	EC50 (SUDHL5 [5]; Homo sapiens, SU-DHL-5, 3 h) [µM]	also measured
CCc1nn(C)c2c1-c1c(C)ccc3c(C(C)CCOc4cccc5ccccc45)c(C(=O)O)n(c13)CCCCOC2 (single isomer, unassigned) [Example 273, 3-ethyl-1,4-dimethyl-7-[4-(naphthalen-1-yloxy)butan-2-yl]-1,10,11,12,13,15-hexahydropyrazolo[4′,3′:9,10][1,6]oxazacycloundecino[8,7,6-hi]indole-8-carboxylic Acid]	0.00589	4.58e-06	4.18e-06	4.53e-06	15.9	1.62e-05	3.74e-06	5.37	–	–	–	–	–
CCc1nn(C)c2c1-c1c(C)ccc3c(CCCOc4cccc5cc(F)ccc45)c(C(=O)O)n(c13)CCCCOC2 (single isomer, unassigned) [Example 268, (−)-3-ethyl-7-{3-[(6-fluoronaphthalen-1-yl)oxy]propyl}-1,4-dimethyl-1,10,11,12,13,15-hexahydropyrazolo[4′,3′:9,10][1,6]oxazacycloundecino[8,7,6-hi]indole-8-carboxylic Acid]	0.0407	> 3.3e-05	2.29e-05	7.46e-06	> 33	> 3.3e-05	7.41e-06	> 33	–	–	–	–	–
COc1ccc2c(CCCOc3cccc4ccccc34)c(C(=O)O)n3c2c1-c1c(nn(C)c1C)COCCCC3 (single isomer, unassigned; enantiomer 2) [Example 351, 4-methoxy-2,3-dimethyl-7-[3-(naphthalen-1-yloxy)propyl]-2,10,11,12,13,15-hexahydropyrazolo[4′,3′:9,10][1,6]oxazacycloundecino[8,7,6-hi]indole-8-carboxylic acid-N-ethylethanamine Salt (Enantiomer 2)]	2.03	–	> 3.3e-05	> 3.3e-05	> 33	–	–	> 33	–	–	–	–	IC50 (SUDHL5 [1]; [8]): > 3.3e-05 M; IC50 (SUDHL10 [3]; [9]): > 3.3e-05 M; IC50 (SUDHL5 [4]; 72 h): 2.07e-05 M
Cc1c2c(nn1C)COCCCCn1c(C(=O)O)c(CCc3cccc4ccccc34)c3cccc-2c31 (racemic) [Example 354, (rac)-2,3-dimethyl-7-[2-(naphthalen-1-yl)ethyl]-2,10,11,12,13,15-hexahydropyrazolo[4′,3′:9,10][1,6]oxazacycloundecino[8,7,6-hi]indole-8-carboxylic Acid]	0.296	–	> 3.3e-05	–	–	–	–	–	2.73e-05	> 3.3e-05	> 33	> 33	IC50 (SUDHL5 [1]; [10]): > 3.3e-05 M; IC50 (SUDHL10 [3]; [11]): > 3.3e-05 M; IC50 (SUDHL5 [4]; [12]): > 3.3e-05 M
Cn1nc2c(c1CN1CCOCC1)-c1cccc3c(CCCOc4cccc5ccccc45)c(C(=O)O)n(c13)CCCCOC2 (single isomer, unassigned; enantiomer 2) [Example 080, 2-methyl-3-(morpholin-4-ylmethyl)-7-[3-(naphthalen-1-yloxy)propyl]-2,10,11,12,13,15-hexahydropyrazolo[4′3′:9,10][1,6]oxazacycloundecino[8,7,6-hi]indole-8-carboxylic acid-N-ethylethanamine Salt (Enantiomer 2)]	0.0312	> 3.3e-05	2.41e-05	1.21e-05	> 33	> 3.3e-05	1.56e-05	> 33	–	–	–	–	–
COCCn1nc(C2CC2)c2c1COCCCCn1c(C(=O)O)c(CCCOc3cccc4c3CCCC4)c3cccc-2c31 (single isomer, unassigned; enantiomer 2) [Example 166, 3-Cyclopropyl-1-(2-methoxyethyl)-7-[3-(5,6,7,8-tetrahydronaphthalen-1-yloxy)propyl]-1,10,11,12,13,15-hexahydropyrazolo[4′,3′:9,10][1,6]oxazacycloundecino[8,7,6-hi]indole-8-carboxylic acid-N-ethylethanamine Salt (Enantiomer 2)]	0.041	2.81e-05	2.82e-05	1.88e-05	> 33	> 3.3e-05	1.26e-05	30.7	–	–	–	–	–
CCc1nn(C)c2c1-c1cccc3c(CCCOc4cccc5cc(Cl)ccc45)c(C(=O)O)n(c13)CCCCOC2 (racemic) [Example 304, (rac)-11-(3-((6-chloronaphthalen-1-yl)oxy)propyl)-12-ethyl-10-methyl-4,5,6,7,9,10-hexahydropyrazolo[4′,3′:9,10][1,6]oxaazacycloundecino[8,7,6-hi]indole-2-carboxylic Acid]	0.0105	–	–	–	–	–	–	–	1.34e-05	3.13e-05	> 33	> 33	IC50 (SUDHL5 [1]; [10]): > 3.3e-05 M; IC50 (SUDHL10 [3]; [11]): > 3.3e-05 M; IC50 (SUDHL5 [4]; [12]): 9.84e-06 M
Cc1ccc2c(C(C)CCOc3cccc4cc(F)ccc34)c(C(=O)O)n3c2c1-c1c(nn(C)c1C)COCCCC3 (single isomer, unassigned) [Example 278, 7-{4-[(6-fluoronaphthalen-1-yl)oxy]butan-2-yl}2,3,4-trimethyl-2,10,11,12,13,15-hexahydropyrazolo[4′,3′:9,10][1,6]oxazacycloundecino[8,7,6-hi]indole-8-carboxylic Acid]	0.142	2.48e-05	1.26e-05	1.49e-05	> 33	> 3.3e-05	1.19e-05	26.3	–	–	–	–	–
Cc1nn(C)c2c1-c1cccc3c(CCCOc4cccc5c4CCCC5)c(C(=O)O)n(c13)CCCCCN(C)C2 [Example 240, (rac)-1,3,15-Trimethyl-7-[3-(5,6,7,8-tetrahydronaphthalen-1-yloxy)propyl]-1,10,11,12,13,14,15,16-octahydropyrazolo[4′,3′:4,5][1,7]diazacyclododecino[3,2,1-hi]indole-8-carboxylic Acid]	0.00885	–	–	–	–	–	–	–	> 3.3e-05	2.56e-05	> 33	11.6	IC50 (SUDHL5 [1]; [13]): 1.26e-05 M; IC50 (SUDHL10 [3]; [14]): > 3.3e-05 M; IC50 (SUDHL5 [4]; [15]): 1.19e-05 M
Cn1nc(COCc2ccc(C#N)cc2)c2c1COCCCCn1c(C(=O)O)c(CCCOc3cccc4ccccc34)c3cccc-2c31 (single isomer, unassigned; enantiomer 2) [Example 348, 3-{[(4-cyanobenzyl)oxy]methyl}-1-methyl-7-[3-(naphthalen-1-yloxy)propyl]-1,10,11,12,13,15-hexahydropyrazolo[4′,3′:9,10][1,6]oxazacycloundecino[8,7,6-hi]indole-8-carboxylic acid-N-ethylethanamine Salt (Enantiomer 2)]	0.0196	–	1.46e-05	4.15e-06	16.8	–	–	14.6	–	–	–	–	IC50 (SUDHL5 [1]; [8]): 1.38e-05 M; IC50 (SUDHL10 [3]; [9]): 2.81e-05 M; IC50 (SUDHL5 [4]; 72 h): 5.12e-06 M
CN1CCCCn2c(C(=O)O)c(CCCOc3cccc4ccccc34)c3cccc(c32)-c2c(/C=C/F)nn(C)c2C1 (racemic) [Example 225, (rac)-3-[(E)-2-fluoroethenyl]-1,14-dimethyl-7-[3-(naphthalen-1-yloxy)propyl]-10,11,12,13,14,15-hexahydro-1H-pyrazolo[3′,4′:8,9][1,6]diazacycloundecino[10,11,1-hi]indole-8-carboxylic Acid]	0.0032	–	–	–	> 33	> 3.3e-05	–	–	2.33e-05	1.85e-05	19.6	16.5	IC50 (SUDHL5 [1]; [13]): 1.32e-05 M; IC50 (SUDHL10 [3]; [14]): 3.27e-05 M; IC50 (SUDHL5 [4]; [15]): 7.21e-06 M
